Reference: PubChem BioAssay (NCI)
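Step 1: Grow cells in 96-well plates. Step 2: Expose to compound for 48 hours at 5 concentrations. Step 3: Interpolate endpoints linearly; if unreached, use highest concentration. GI50 marks 50% less growth. TGI marks complete inhibition of growth.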

Legend:
Assay in all cases: NCI tumour cell line growth inhibition, 48 h
DMS 273 small cell lung = test system: DMS 273 small cell lung
HOP-18 NSCLC = test system: HOP-18 NSCLC
KM20L2 colon = test system: KM20L2 colon
LXFL 529 NSCLC = test system: LXFL 529 NSCLC
M19-MEL melanoma = test system: M19-MEL melanoma
SNB-78 CNS = test system: SNB-78 CNS
HS 578T breast = test system: HS 578T breast
MDA-MB-435 = test system: MDA-MB-435
NCI/ADR-RES ovarian = test system: NCI/ADR-RES ovarian
PC-3 prostate = test system: PC-3 prostate

SMILES | TGI (DMS 273 small cell lung) [µM] | TGI (HOP-18 NSCLC) [µM] | TGI (KM20L2 colon) [µM] | TGI (LXFL 529 NSCLC) [µM] | TGI (M19-MEL melanoma) [µM] | TGI (SNB-78 CNS) [µM] | other results
Cc1ccc(SC(C)/C=C/NNC2=NC(c3ccccc3)C(c3ccccc3)=NN2)cc1 (configuration not stated) | > 100 | > 100 | 27.6 | > 100 | > 100 | > 100 | –
CCOP(=O)(Cc1ccc(CP(=O)(OCC)OCC)n1C)OCC | > 100 | > 100 | > 100 | > 100 | > 100 | – | –
CC(O)C(N=Cc1ccccc1[O-])C(=O)[O-].CC(O)C(N=Cc1ccccc1[O-])C(=O)[O-].[Co+2] (configuration not stated) | – | > 100 | > 100 | – | > 100 | > 100 | GI50 (HOP-18 NSCLC): 70.8 µM; GI50 (KM20L2 colon): > 100 µM; GI50 (M19-MEL melanoma): 78.8 µM; GI50 (SNB-78 CNS): > 100 µM
CC(=O)O.CC(=O)O.CC(=O)O.CC(=O)O.CC(=O)O.CC(=O)O.O.[Ti].[Ti] | > 100 | > 100 | > 100 | > 100 | – | > 100 | GI50 (DMS 273 small cell lung): > 100 µM; GI50 (HOP-18 NSCLC): > 100 µM; GI50 (KM20L2 colon): > 100 µM; GI50 (LXFL 529 NSCLC): > 100 µM; GI50 (SNB-78 CNS): > 100 µM
COC(=O)C1=C(C)N(NC(=O)c2ccccc2)C(C)(O)C12CCOC2=O (configuration not stated) | > 100 | > 100 | > 100 | > 100 | – | > 100 | –
Cc1ccc(Cl)cc1Nc1nc(C(F)(F)F)ccc1C(=O)N1CCN(c2ccc(F)cc2)CC1 | – | – | – | – | – | – | GI50 (HS 578T breast): 4.31 µM; TGI (HS 578T breast): 22.3 µM; GI50 (MDA-MB-435): 14.2 µM; TGI (MDA-MB-435): 29.6 µM; GI50 (NCI/ADR-RES ovarian): 13.3 µM; TGI (NCI/ADR-RES ovarian): 36.7 µM; GI50 (PC-3 prostate): 10.2 µM; TGI (PC-3 prostate): 33.3 µM
O=S(=O)(Nc1cc(F)cc(Cl)c1)c1ccc(-c2cnc(C3CC3)o2)cc1 | – | – | – | – | – | – | GI50 (HS 578T breast): 1.02 µM; TGI (HS 578T breast): 17.2 µM; GI50 (MDA-MB-435): 0.274 µM; TGI (MDA-MB-435): 1.22 µM; GI50 (NCI/ADR-RES ovarian): 1.08 µM; TGI (NCI/ADR-RES ovarian): 15.5 µM; GI50 (PC-3 prostate): 1.25 µM; TGI (PC-3 prostate): 14.3 µM
CS(=O)(=O)N/N=C/CN1C(=O)c2ccccc2C1=O | > 100 | > 100 | > 100 | > 100 | > 100 | > 100 | –
Cn1c(=O)c2c(nc(Nc3cc(=O)[nH]c(=O)[nH]3)n2Cc2ccccc2)n(C)c1=O | – | – | – | – | – | – | GI50 (HS 578T breast): > 100 µM; TGI (HS 578T breast): > 100 µM; GI50 (MDA-MB-435): > 100 µM; TGI (MDA-MB-435): > 100 µM; GI50 (NCI/ADR-RES ovarian): > 100 µM; TGI (NCI/ADR-RES ovarian): > 100 µM; GI50 (PC-3 prostate): > 100 µM; TGI (PC-3 prostate): > 100 µM
COc1cc(Nc2cn[nH]c2-c2ccc(Cl)cc2)cc(OC)c1OC | – | – | – | – | – | – | GI50 (HS 578T breast): 3.88 µM; TGI (HS 578T breast): 63.1 µM; GI50 (MDA-MB-435): 1.26 µM; TGI (MDA-MB-435): 4.24 µM; GI50 (NCI/ADR-RES ovarian): 4.42 µM; TGI (NCI/ADR-RES ovarian): > 36.8 µM; GI50 (PC-3 prostate): 8.18 µM; TGI (PC-3 prostate): > 64 µM
O=[N+]([O-])c1nccn1CC(O)c1ccc(F)cc1 (configuration not stated) | > 100 | > 100 | > 100 | > 100 | > 100 | – | –
COc1ccc(NC(=O)CCc2cc(-c3ccc(O)c(OC)c3)nc(NC#N)n2)cc1 | – | > 100 | > 100 | > 100 | > 100 | > 100 | –
CCCCCCCCCC/C=C/CC(=O)SCCNC(=O)CCNC(=O)[C@@H](O)C(C)(C)COP(=O)(O)OP(=O)(O)OCC1OC(n2cnc3c(N)ncnc32)C(O)C1OP(=O)(O)O (some centres not stated) | – | – | – | – | – | – | TGI (HS 578T breast): > 10 µM; TGI (MDA-MB-435): > 10 µM; TGI (NCI/ADR-RES ovarian): > 10 µM; TGI (PC-3 prostate): > 10 µM
O=C(O)CNc1cc(-c2ccccc2)nc(NCC(=O)O)n1 | > 100 | > 100 | > 100 | > 100 | > 100 | > 100 | –
O=[n+]1c2c(n([O-])c3ccccc31)CCCCCCCCCC2 | > 100 | – | > 100 | > 100 | > 100 | > 100 | –
Cc1ccc(S(=O)(=O)NCC2CCCCC2=O)cc1 (configuration not stated) | > 100 | > 100 | > 100 | > 100 | > 100 | > 100 | –
C=C(CCCCC)CN1CCCC1[C@@](C)(O)CC(=O)OCC (some centres not stated) | > 100 | > 100 | > 100 | > 100 | > 100 | > 100 | –
CC/C(=C(/c1ccc(OCCN(C)C)cc1)c1ccc(OC(=O)CCCCC(=O)c2c(C)[nH]c(/C=C3\N=C(c4ccc[nH]4)C=C3OC)c2C)cc1)c1ccccc1 | – | – | – | – | – | – | GI50 (HS 578T breast): 4.98 µM; TGI (HS 578T breast): 47.6 µM; GI50 (MDA-MB-435): 7 µM; TGI (MDA-MB-435): 46.1 µM; GI50 (NCI/ADR-RES ovarian): 12.6 µM; TGI (NCI/ADR-RES ovarian): 46.8 µM; GI50 (PC-3 prostate): 4.6 µM; TGI (PC-3 prostate): 20.6 µM
O=C1OC(c2ccccc2)=N/C1=C/C=C/c1ccco1 | – | – | > 100 | > 100 | > 100 | > 100 | –
Cc1ccccc1N1C(=O)/C(=C/c2ccc(N(CCC#N)CCC#N)cc2)N=C1c1cc([N+](=O)[O-])ccc1Cl | > 100 | > 100 | > 100 | > 100 | – | > 100 | –
O=c1nc2occc2cn1C1CC(O)C(CO)O1 (configuration not stated) | > 100 | > 100 | > 100 | > 100 | > 100 | > 100 | –
